Reference: patent US20150018311A1, “THERAPEUTIC BORON-CONTAINING COMPOUNDS” (priority 2012, published 2015)

Columns and labels:
Test in all cases: Growth in liquid media in presence of test compound
Assay type in all cases: cell-based
[1] = test system: Candida albicans (ATCC 90028)
From the text: (§1) Test organisms used were the bacterial strains Escherichia coli (ATCC 25922), Pseudomonas aeruginosa (ATCC 27853), Staphylococcus aureus (ATCC 25923), Streptococcus pyogenes (ATCC 19615), and Mycobacterium tuberculosis (H37Rv), and the yeast strain Candida albicans (ATCC 90028).
(§2) The liquid media used for growth were Luria-Bertani (Becton Dickinson, Sparks, Md.) and Mueller-Hinton (bio-Merieux, Paris, France) broths, but with Saburo medium for Candida and Middlebrook 7H9 medium (Difco) for mycobacteria.
(§3) The strains were grown at 37° C. and after suitable cell concentrations had been reached, 100 μL of each cell suspension was added to a tube with growth media and test compound. Cultivation of the bacteria was then carried out in the presence of each test compound at 37° C. and the tubes examined for visible growth. The compounds were tested at concentrations of either 500 mg/l, 50 mg/l or 5 mg/l. This assay was repeated twice.
(§4) Some compounds were only tested against some test organisms. It will be appreciated that the charge of these molecules will depend on the environment, some of the Examples are shown with a suitable counter ion, some without.

[2] = test system: Pseudomonas aeruginosa (ATCC 27853)
From the text: as §1, §2, §3, §4

[3] = test system: Staphylococcus aureus (ATCC 25923)
From the text: as §1, §2, §3, §4

[4] = test system: Escherichia coli (ATCC 25922)
From the text: as §1, §2, §3, §4

[5] = test system: Streptococcus pyogenes (ATCC 19615)
From the text: as §1, §2, §3, §4

[6] = test system: Mycobacterium tuberculosis (H37Rv)

Structure (SMILES): CC1(C)C2CC3OB([C@H](CCc4ccccc4)CNC(=O)[C@H](N)CCCCN)O[C@]3(C)C1C2 (stereo partly drawn) [Compound 20]
- Growth in the presence of test compound, C. albicans ([1]; 5 mg/L): +
- Growth in the presence of test compound, C. albicans ([1]; 50 mg/L): ±
- Growth in the presence of test compound, C. albicans ([1]; 500 mg/L): ±
- Growth in the presence of test compound, P. aeruginosa ([2]; 5 mg/L): +
- Growth in the presence of test compound, P. aeruginosa ([2]; 50 mg/L): ±
- Growth in the presence of test compound, P. aeruginosa ([2]; 500 mg/L): ±
- Growth in the presence of test compound, S. aureus ([3]; 5 mg/L): +
- Growth in the presence of test compound, S. aureus ([3]; 50 mg/L): −
- Growth in the presence of test compound, S. aureus ([3]; 500 mg/L): ±
- Growth in the presence of test compound, E. coli ([4]; 5 mg/L): +
- Growth in the presence of test compound, E. coli ([4]; 50 mg/L): +
- Growth in the presence of test compound, E. coli ([4]; 500 mg/L): +
- Growth in the presence of test compound, S. pyogenes ([5]; 5 mg/L): +
- Growth in the presence of test compound, S. pyogenes ([5]; 50 mg/L): ±
- Growth in the presence of test compound, S. pyogenes ([5]; 500 mg/L): ±
- Growth in the presence of test compound, M. tuberculosis ([6]; 5 mg/L): +
- Growth in the presence of test compound, M. tuberculosis ([6]; 50 mg/L): −
- Growth in the presence of test compound, M. tuberculosis ([6]; 500 mg/L): −

Structure (SMILES): CC1(C)C2CC3OB([C@@H](CNC(=O)[C@@H](N)CCCCN)Cc4ccc5ccccc5c4)O[C@]3(C)C1C2 (stereo partly drawn) [Compound 21]
- Growth in the presence of test compound, C. albicans ([1]; 5 mg/L): +
- Growth in the presence of test compound, C. albicans ([1]; 50 mg/L): +
- Growth in the presence of test compound, C. albicans ([1]; 500 mg/L): ±
- Growth in the presence of test compound, P. aeruginosa ([2]; 5 mg/L): +
- Growth in the presence of test compound, P. aeruginosa ([2]; 50 mg/L): +
- Growth in the presence of test compound, P. aeruginosa ([2]; 500 mg/L): ±
- Growth in the presence of test compound, S. aureus ([3]; 5 mg/L): +
- Growth in the presence of test compound, S. aureus ([3]; 50 mg/L): ±
- Growth in the presence of test compound, S. aureus ([3]; 500 mg/L): +
- Growth in the presence of test compound, E. coli ([4]; 5 mg/L): +
- Growth in the presence of test compound, E. coli ([4]; 50 mg/L): +
- Growth in the presence of test compound, E. coli ([4]; 500 mg/L): +
- Growth in the presence of test compound, S. pyogenes ([5]; 5 mg/L): +
- Growth in the presence of test compound, S. pyogenes ([5]; 50 mg/L): +
- Growth in the presence of test compound, S. pyogenes ([5]; 500 mg/L): ±
- Growth in the presence of test compound, M. tuberculosis ([6]; 5 mg/L): −
- Growth in the presence of test compound, M. tuberculosis ([6]; 50 mg/L): −
- Growth in the presence of test compound, M. tuberculosis ([6]; 500 mg/L): −

Structure (SMILES): CC(NC(=O)C(N)CCCCN)C(Cc1ccccc1)B1OC2CC3CC(C3(C)C)C2(C)O1 (stereo not drawn) [Compound 26]
- Growth in the presence of test compound, C. albicans ([1]; 5 mg/L): +
- Growth in the presence of test compound, C. albicans ([1]; 50 mg/L): +
- Growth in the presence of test compound, C. albicans ([1]; 500 mg/L): −
- Growth in the presence of test compound, P. aeruginosa ([2]; 5 mg/L): +
- Growth in the presence of test compound, P. aeruginosa ([2]; 50 mg/L): +
- Growth in the presence of test compound, P. aeruginosa ([2]; 500 mg/L): −
- Growth in the presence of test compound, S. aureus ([3]; 5 mg/L): +
- Growth in the presence of test compound, S. aureus ([3]; 50 mg/L): +
- Growth in the presence of test compound, S. aureus ([3]; 500 mg/L): −
- Growth in the presence of test compound, E. coli ([4]; 5 mg/L): +
- Growth in the presence of test compound, E. coli ([4]; 50 mg/L): +
- Growth in the presence of test compound, E. coli ([4]; 500 mg/L): −
- Growth in the presence of test compound, S. pyogenes ([5]; 5 mg/L): +
- Growth in the presence of test compound, S. pyogenes ([5]; 50 mg/L): +
- Growth in the presence of test compound, S. pyogenes ([5]; 500 mg/L): −
- Growth in the presence of test compound, M. tuberculosis ([6]; 5 mg/L): −
- Growth in the presence of test compound, M. tuberculosis ([6]; 50 mg/L): −
- Growth in the presence of test compound, M. tuberculosis ([6]; 500 mg/L): −

Structure (SMILES): CC(B1OC2CC3CC(C3(C)C)C2(C)O1)C(Cc1ccccc1)NC(=O)C(N)CCCCN (stereo not drawn) [Compound 30]
- Growth in the presence of test compound, C. albicans ([1]; 5 mg/L): +
- Growth in the presence of test compound, C. albicans ([1]; 50 mg/L): +
- Growth in the presence of test compound, C. albicans ([1]; 500 mg/L): −
- Growth in the presence of test compound, P. aeruginosa ([2]; 5 mg/L): +
- Growth in the presence of test compound, P. aeruginosa ([2]; 50 mg/L): +
- Growth in the presence of test compound, P. aeruginosa ([2]; 500 mg/L): −
- Growth in the presence of test compound, S. aureus ([3]; 5 mg/L): +
- Growth in the presence of test compound, S. aureus ([3]; 50 mg/L): +
- Growth in the presence of test compound, S. aureus ([3]; 500 mg/L): −
- Growth in the presence of test compound, E. coli ([4]; 5 mg/L): +
- Growth in the presence of test compound, E. coli ([4]; 50 mg/L): +
- Growth in the presence of test compound, E. coli ([4]; 500 mg/L): −
- Growth in the presence of test compound, S. pyogenes ([5]; 5 mg/L): +
- Growth in the presence of test compound, S. pyogenes ([5]; 50 mg/L): +
- Growth in the presence of test compound, S. pyogenes ([5]; 500 mg/L): −
- Growth in the presence of test compound, M. tuberculosis ([6]; 5 mg/L): +
- Growth in the presence of test compound, M. tuberculosis ([6]; 50 mg/L): −
- Growth in the presence of test compound, M. tuberculosis ([6]; 500 mg/L): −
